Data published in US20190031780A1, “COMPOSITIONS AND METHODS FOR TARGETING CANCER STEM CELLS” (Siamab Therapeutics, Inc., priority 2016, published 2019).

Assays:
STn+CD133+ OV90 cells = experiment: Cell viability of OV90 cells by MTT assay, chemotherapeutic vs antibody treatment (Example 6); assay type: cell-based, human; conditions: OV90 cells cultured 72 to 144 hours; normalized to vehicle only control
Protocol: STn+CD133+ OV90 and CSC sub-fractions were treated with different concentrations of paclitaxel (FIG. 2A), carboplatin (FIG. 2B), paclitaxel and carboplatin (FIG. 2C) or with unconjugated anti-STn antibody S3F (FIG. 2D). OV90 cells were cultured for 72 to 144 hours with the indicated chemotherapeutic drug or antibody concentrations and cell viability was analyzed by MTT assay. All values were normalized to a vehicle only control.

OVCAR3 cells = experiment: OVCAR3 cell viability by MTT assay, chemotherapeutic vs antibody treatment (Example 15); assay type: cell-based, human; conditions: 72 hours, increasing doses, normalized to vehicle control
Protocol: The viability of OVCAR3 cells grown in culture was assessed following treatment with carboplatin, paclitaxel, carboplatin and paclitaxel, or S3F (FIG. 7). OVCAR3 cells were cultured for 72 hours with the indicated concentrations of paclitaxel, carboplatin, paclitaxel/carboplatin combination, or S3F. Relative cell viability was determined by measuring cellular metabolic activity using an MTT assay (EMD Millipore, Billerica, Mass.). For each experiment, all values were normalized to the vehicle control.

OVCAR4 cells = experiment: Relative frequency of OVCAR4 STn/CD133 subpopulations after chemotherapy treatment (Example 13); assay type: cell-based, human; conditions: vs vehicle
Protocol: The potential for anti-STn antibodies to target stem cells after treatment of OVCAR4 cells with chemotherapy agents (paclitaxel and/or carboplatin) was evaluated. The relative frequency of the OVCAR4 subpopulations observed following treatment with either vehicle (shaded) or the indicated chemotherapy regimen is shown in FIG. 6.

[1] = test system: STn positive cells in OVCAR3 xenograft tissues; experiment: STn expression in xenograft tissues by flow cytometry at end of OVCAR3 in vivo study (Example 20); design: species or system NOD/SCID mice; conditions: 5 mg/kg weekly
Protocol: OVCAR3 cells were injected into NOD/SCID mice to generate tumor xenografts. Once a sufficient number of mice developed tumor volumes ranging from 200-500 mm^3, mice were randomized into 5 groups (about 6-7 mice/group) with essentially equivalent group mean tumor volumes. Each group received weekly treatments according to the following Table.
At the end of the study, xenograft tissues were processed to a single cell suspension and assessed for STn expression by flow cytometry. Around 80% of the cells in tissues from groups 1, 4, and 5 were STn positive, while the cells from group 2 mice were less than 40% STn positive (a reduction of about 50%) and cells from group 3 mice were around 10% STn positive (a reduction of greater than 85%).

ovarian cancer tissue = experiment: Immunohistochemical staining of ovarian cancer tissue sections (Example 9); conditions: primary antibody; compared to normal IgG and no primary antibody
Source text: Tissue sections from ovarian cancer tissue were subjected to immunohistochemical staining to identify cells expressing STn using S3F antibody as a primary antibody. Bound antibody was detected using a peroxidase-based secondary detection system.

Row | Molecule | cell viability (MTT assay) (STn+CD133+ OV90 cells) | relative cell viability (metabolic activity, MTT assay) (OVCAR3 cells) | relative frequency of STn-negative subpopulations (STn-/CD133- and STn-/CD133+) (OVCAR4 cells) | relative frequency of STn-positive subpopulations (STn+/CD133- and STn+/CD133+) (OVCAR4 cells) | STn positive cells in xenograft tissues [1] | immunohistochemical staining of STn-expressing cells (ovarian cancer tissue)
1 | CC(=O)O[C@H]1C(=O)[C@@]2(C)[C@H]([C@H](OC(=O)c3ccccc3)[C@]3(O)C[C@H](OC(=O)[C@H](O)[C@@H](NC(=O)c4ccccc4)c4ccccc4)C(C)=C1C3(C)C)[C@]1(OC(C)=O)CO[C@@H]1C[C@@H]2O [paclitaxel] | significantly reduced | decreased cell viability | decrease | increase | – | –
2 | N.N.O=C([O-])C1(C(=O)[O-])CCC1.[Pt+2] [carboplatin] | significantly reduced | decreased cell viability | decrease | increase | – | –
3 | S3F: anti-STn IgG2a antibody: mouse 3F1 variable domains (SEQ ID NO: 1, 2) with mouse IgG2a constant domains; full chains SEQ ID NO: 7, 8 (antibody) heavy: QVQLQQSDAELVKPGASVKISCKASGYTFTDHAIHWVKQKPEQGLDWIGYISPGNGDIKYNEKFKDKVTLTADKSSSTACMHLNSLTSEDSAVYFCKRSLLALDYWGQGTTLTVSSAKTTAPSVYPLAPVCGDTTGSSVTLGCLVKGYFPEPVTLTWNSGSLSSGVHTFPAVLQSDLYTLSSSVTVTSSTWPSQSITCNVAHPASSTKVDKKIEPRGPTIKPCPPCKCPAPNLLGGPSVFIFPPKIKDVLMISLSPIVTCVVVDVSEDDPDVQISWFVNNVEVHTAQTQTHREDYNSTLRVVSALPIQHQDWMSGKEFKCKVNNKDLPAPIERTISKPKGSVRAPQVYVLPPPEEEMTKKQVTLTCMVTDFMPEDIYVEWTNNGKTELNYKNTEPVLDSDGSYFMYSKLRVEKKNWVERNSYSCSVVHEGLHNHHTTKSFSRTPGK light: DIVMTQSHKFMSTSVGDRVSITCKASQDVGTNIAWYQQKPGRSPKVLIYSASTRHTGVPDRFTGSGSGTDFTLTISNVQSEDLTDYFCQQYSSFPLTFGVGTKLELKRADAAPTVSIFPPSSEQLTSGGASVVCFLNNFYPKDINVKWKIDGSERQNGVLNSWTDQDSKDSTYSMSSTLTLTKDEYERHNSYTCEATHKTSTSPIVKSFNRNEC | no significant effect | no loss of viability | – | – | Around 80% | Numerous cells showed positive staining
4 | SIA101: anti-STn IgG2a antibody: SIA101 variable domains (SEQ ID NO: 3, 4) with mouse IgG2a constant domains (antibody, V domains shown, not fully specified; mouse IgG2a constant domains; MOD_RES (9)..(9) Any amino acid; MOD_RES (111)..(111) Any amino acid) VH: QVQLQQSDXELVKPGASVKISCKASGYTFTDHAIHWVKQKPEQGLEWIGYFSPGNDDIKYNEKFRGKATLTADKSSSTAYMQLNSLSSDDSAVYFCKRSLSTPYWGQGTLXTVSA VL: DIVMTQSPSSLTVTAGEKVTMSCKSSQSLLNRGNHKNYLTWYRQKPGLPPKLLIYWASTRESGVPDRFTGSGSGTDFALTISSVQAEDLAVYYCQNDYTYPYTFGGGTKLEIKR | – | – | – | – | Around 80% | –
